From US11168084B2, “Purine based compounds as toll-like receptor 9 antagonist” (COUNCIL OF SCIENTIFIC & INDUSTRIAL RESEARCH, priority 2017, dated 2021) come the findings set out here.

The target of the assay is T1, toll-like receptor 9 (TLR9) (Homo sapiens, UniProt Q9NR96).
T1 construct: we isolated PBMCs from venous blood collected from healthy donors using density gradient centrifugation; endogenous in cells; host or cells: primary human PBMC (plasmacytoid dendritic cells) from healthy donors
T1 sequence (Q9NR96 26-1032): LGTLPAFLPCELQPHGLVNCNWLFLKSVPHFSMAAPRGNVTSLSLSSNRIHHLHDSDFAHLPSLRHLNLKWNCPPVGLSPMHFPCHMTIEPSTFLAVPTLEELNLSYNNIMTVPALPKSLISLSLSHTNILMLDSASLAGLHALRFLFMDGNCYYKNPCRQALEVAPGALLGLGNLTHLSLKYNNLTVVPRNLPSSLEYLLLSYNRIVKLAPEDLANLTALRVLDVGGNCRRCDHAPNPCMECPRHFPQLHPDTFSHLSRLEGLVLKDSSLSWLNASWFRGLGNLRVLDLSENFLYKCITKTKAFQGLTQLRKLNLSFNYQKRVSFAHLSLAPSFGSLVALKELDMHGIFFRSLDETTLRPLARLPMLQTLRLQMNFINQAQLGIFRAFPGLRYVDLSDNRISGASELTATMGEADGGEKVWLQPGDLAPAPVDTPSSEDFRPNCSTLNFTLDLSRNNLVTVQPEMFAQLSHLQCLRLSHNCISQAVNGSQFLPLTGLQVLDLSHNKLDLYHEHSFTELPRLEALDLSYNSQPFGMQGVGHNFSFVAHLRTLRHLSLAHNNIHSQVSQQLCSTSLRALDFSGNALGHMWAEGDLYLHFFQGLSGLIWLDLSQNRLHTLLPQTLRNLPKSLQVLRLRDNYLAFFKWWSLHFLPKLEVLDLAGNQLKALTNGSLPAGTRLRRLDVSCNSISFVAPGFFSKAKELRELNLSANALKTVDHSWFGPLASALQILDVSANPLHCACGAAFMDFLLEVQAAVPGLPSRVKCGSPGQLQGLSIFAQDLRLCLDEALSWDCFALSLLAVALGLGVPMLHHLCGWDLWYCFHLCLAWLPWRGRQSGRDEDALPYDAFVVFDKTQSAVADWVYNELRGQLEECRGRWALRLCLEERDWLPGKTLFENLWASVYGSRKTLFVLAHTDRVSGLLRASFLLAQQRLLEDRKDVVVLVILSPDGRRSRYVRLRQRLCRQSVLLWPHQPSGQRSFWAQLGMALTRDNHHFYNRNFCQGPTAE
Nature of the assay: Screening of TLR9 antagonistic activity: IFN-alpha production from human PBMC in response to CpGA (ELISA). In kind it is cell-based. The settings on record: TLR9 antagonism; Table 2 does not say which of the three TLR9 assays. An excerpt: The principle of the screening assay was designed based on the production of Type I interferons (IFN-alpha) from human PBMCs, which results almost exclusively from TLR9 triggering on the PDCs by type A CpG oligonucleotides (CpGA). PBMCs were isolated from venous blood collected from healthy donors using density gradient centrifugation.
A medium throughput biological assay based on toll-like receptor 9 activation has been designed in primary human immune cells to screen the synthesized small molecules with general formula (I) for toll-like receptor 9 (TLR9) antagonism. Among the immune cell subsets circulating in the peripheral blood, two cell subsets plasmacytoid dendritic cells (PDCs) and B lymphocytes has significant expression of TLR9. Plasmacytoid dendritic cells are capable of producing type I interferons (e.g. IFN-alpha) in response to TLR9 ligands. Type A and type B unmethylated cytosine-guanine rich DNA oligonucleotides (CpG oligonucleotides) are the bonafide ligands for TLR9.
In the screening assay we isolated PBMCs from venous blood collected from healthy donors using density gradient centrifugation. PBMCs were cultured the at 2-3*10^5 cells/200 ul/well in a 96 well plate. TLR9 agonist CpGA was added at 1 uM in presence of escalating doses of the synthesized small molecules (0 uM, 0.1 uM, 1 uM, 5 uM, 10 uM and 20 uM). The supernatants was collected after overnight culture from the culture wells and looked for IFN-alpha using enzyme linked immunosorbent assay (ELISA). […] For the biological validation of TLR9 antagonism the bona fide TLR9 agonist CpG oligonucleotides were used.
A general note: In an ELISA, binding on a coated surface is turned into a signal by an enzyme label.
A word on the IC50: it is the concentration at which inhibition is half-maximal. A higher IC50 goes with weaker potency in that assay. In turn, `CCN1CCN(CCCn2cnc3c(N4CCN(CC)CC4)nc(N)nc32)CC1` [Compound 4, 6-(4-ethylpiperazin-1-yl)-9-(3-(4-ethylpiperazin-1-yl)propyl)-9H-purin-2-amine] registered an IC50 of 188 nM.
Turning to `CCN1CCN(CCCn2cnc3c(N4CCN(CC)CC4)nc(NCc4ccc(OC)cc4)nc32)CC1` [Compound 5, 6-(4-ethylpiperazin-1-yl)-9-(3-(4-ethylpiperazin-1-yl)propyl)-N-(4-methoxybenzyl)-9H-purin-2-amine], the half-maximal inhibitory concentration (IC50) was 203 nM.
On to `CCN1CCN(CCCn2cnc3c(N4CCN(CC)CC4)nc(NCc4ccc(F)cc4)nc32)CC1` [Compound 6, 6-(4-ethylpiperazin-1-yl)-9-(3-(4-ethylpiperazin-1-yl)propyl)-N-(4-fluorobenzyl)-9H-purin-2-amine], for which half-maximal inhibition (IC50) required 470 nM.
The same measure for `CCN1CCN(CCCn2cnc3c(N4CCN(CC)CC4)nc(NCc4ccc(N(CC)CC)cc4)nc32)CC1` [Compound 7, N-(4-(diethylamino)benzyl)-6-(4-ethylpiperazin-1-yl)-9-(3-(4-ethylpiperazin-1-yl)propyl)-9H-purin-2-amine]: 438 nM.
The same measure for `CCN1CCN(CCCn2cnc3c(N4CCN(CC)CC4)nc(NCc4ccccc4)nc32)CC1` [Compound 8, N-benzyl-6-(4-ethylpiperazin-1-yl)-9-(3-(4-ethylpiperazin-1-yl)propyl)-9H-purin-2-amine]: 140 nM; for `CCN1CCN(CCCn2cnc3c(N4CCN(CC)CC4)nc(N4CCCC4)nc32)CC1` [Compound 9]: 1830 nM; for `CCN1CCN(CCCn2cnc3c(N4CCN(CC)CC4)nc(NC(=O)c4ccccc4)nc32)CC1` [Compound 10, N-(6-(4-ethylpiperazin-1-yl)-9-(3-(4-ethylpiperazin-1-yl)propyl)-9H-purin-2-yl)benzamide]: 339 nM.
In the case of `CCN1CCN(CCCn2cnc3c(N4CCN(CC)CC4)nc(NC(=O)C4CCCN4)nc32)CC1` (stereo not shown) [Compound 12, N-(6-(4-ethylpiperazin-1-yl)-9-(3-(4-ethylpiperazin-1-yl)propyl)-9H-purin-2-yl) pyrrolidine-2-carboxamide], the IC50 amounted to 378 nM.
As for `CCN1CCN(CCCn2cnc3c(N4CCN(C5CCCC5)CC4)nc(NCc4ccc(N(CC)CC)cc4)nc32)CC1` [Compound 24], inhibition was half-maximal at 145 nM (IC50).
To `CCN1CCN(CCCn2cnc3c(N4CCN(C5CCCC5)CC4)nc(NCc4ccc(F)cc4)nc32)CC1` [Compound 25, 6-(4-cyclopentylpiperazin-1-yl)-9-(3-(4-ethylpiperazin-1-yl)propyl)-N-(4-fluorobenzyl)-9H-purin-2-amine] belongs 254 nM; to `CCN1CCN(CCCn2cnc3c(N4CCN(C5CCCC5)CC4)nc(NCc4ccc(OC)cc4)nc32)CC1` [Compound 26, 6-(4-cyclopentylpiperazin-1-yl)-9-(3-(4-ethylpiperazin-1-yl)propyl)-N-(4-methoxybenzyl)-9H-purin-2-amine], 120 nM.
For `CCN1CCN(CCCn2cnc3c(N4CCN(C5CCCC5)CC4)nc(NC(=O)c4ccc(CN(C)C)cc4)nc32)CC1` [Compound 27, N-(6-(4-cyclopentylpiperazin-1-yl)-9-(3-(4-ethylpiperazin-1-yl)propyl)-9H-purin-2-yl)-4-((dimethylamino)methyl)benzamide], 56 nM corresponded to half-maximal inhibition (IC50).
The same measure for `Nc1nc(N2CCN(C3CCCC3)CC2)c2ncn(CCCN3CCCC3)c2n1` [Compound 29, 6-(4-cyclopentylpiperazin-1-yl)-9-(3-(pyrrolidin-1-yl)propyl)-9H-purin-2-amine]: 122 nM; for `COc1ccc(CNc2nc(N3CCN(C4CCCC4)CC3)c3ncn(CCCN4CCCC4)c3n2)cc1` [Compound 30, 6-(4-cyclopentylpiperazin-1-yl)-N-(4-methoxybenzyl)-9-(3-(pyrrolidin-1-yl)propyl)-9H-purin-2-amine]: 241 nM.
The same measure for `CN(C)Cc1ccc(C(=O)Nc2nc(N3CCN(C4CCCC4)CC3)c3ncn(CCCN4CCCC4)c3n2)cc1` [Compound 31, N-(6-(4-cyclopentylpiperazin-1-yl)-9-(3-(pyrrolidin-1-yl)propyl)-9H-purin-2-yl)-4-((dimethylamino)methyl)benzamide]: 5 nM; for `Fc1ccc(CNc2nc(N3CCN(C4CCCC4)CC3)c3ncn(CCCN4CCCC4)c3n2)cc1` [Compound 32, 6-(4-cyclopentylpiperazin-1-yl)-N-(4-fluorobenzyl)-9-(3-(pyrrolidin-1-yl)propyl)-9H-purin-2-amine]: 100 nM.
In turn, `CCN1CCN(c2nc(NCc3ccc(OC)cc3)nc3c2ncn3CCCN2CCCC2)CC1` [Compound 34, 6-(4-ethylpiperazin-1-yl)-N-(4-methoxybenzyl)-9-(3-(pyrrolidin-1-yl)propyl)-9H-purin-2-amine] displayed an IC50 of 80 nM.
For `CCN1CCN(CCCn2cnc3c(N4CCN(C(=O)C5CCCC5)CC4)nc(NCc4ccc(N(CC)CC)cc4)nc32)CC1` [Compound 38, Cyclopentyl(4-(2-(4-(diethylamino)benzylamino)-9-(3-(4-ethylpiperazin-1-yl)propyl)-9H-purin-6-yl)piperazin-1-yl)methanone], the IC50 stood at 8800 nM.
The same measure for “Iso-butyl(1-(6-(4-ethylpiperazin-1-yl)-9-(3-(4-ethylpiperazin-1-yl)propyl)-9H-purin-2-yl)amino)-1-oxo-3-phenylpropan-2-yl)carbamate [Compound 15]”: 470 nM.
